The results in this text go back to BindingDB's records for patent WO2025045746 (695 Avenue de la Résistance, 2025).

By IC50 is commonly meant the concentration that inhibits the measured activity by half.

The experiment concerns the target T1, NAD(+) hydrolase SARM1 [28-724] (UniProt Q6SZW1).
T1 construct: 28-724
T1 sequence (Q6SZW1 whole entry): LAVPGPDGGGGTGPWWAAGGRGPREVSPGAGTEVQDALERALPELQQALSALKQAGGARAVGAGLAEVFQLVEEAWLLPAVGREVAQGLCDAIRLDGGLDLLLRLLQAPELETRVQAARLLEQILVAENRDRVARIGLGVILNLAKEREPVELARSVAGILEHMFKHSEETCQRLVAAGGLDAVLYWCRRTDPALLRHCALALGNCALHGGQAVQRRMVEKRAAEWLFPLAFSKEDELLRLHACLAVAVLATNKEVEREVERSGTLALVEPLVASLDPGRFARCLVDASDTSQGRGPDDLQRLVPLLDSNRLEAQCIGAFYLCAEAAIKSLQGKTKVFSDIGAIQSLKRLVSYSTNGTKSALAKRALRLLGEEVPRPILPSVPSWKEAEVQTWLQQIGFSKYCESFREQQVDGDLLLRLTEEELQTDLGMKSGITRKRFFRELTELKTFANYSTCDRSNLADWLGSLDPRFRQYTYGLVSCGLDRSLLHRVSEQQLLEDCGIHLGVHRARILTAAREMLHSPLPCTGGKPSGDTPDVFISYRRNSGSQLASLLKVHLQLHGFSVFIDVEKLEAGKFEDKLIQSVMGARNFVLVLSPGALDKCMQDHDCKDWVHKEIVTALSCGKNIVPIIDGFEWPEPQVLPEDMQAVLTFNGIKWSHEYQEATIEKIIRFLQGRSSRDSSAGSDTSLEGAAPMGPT
Description: SARM1 Inhibitory Activity. How it is done: Assay reagents were prepared in 25mM HEPES pH 7.2, 50mM NaCl, 1mM EDTA and 0.0025% Tween20. […] The peak area of NAD and linear ADPR were measured by a RapidFire High Throughput Mass Spectrometry System (Agilent Technologies, Santa Clara, CA) using an API5000 triple quadrupole mass spectrometer (AB Sciex Framingham, MA). The ratio of linear ADPR to NAD peak area was then plotted against compound concentration to obtain an IC50 as fitted via non-linear regression.
In turn, `CC1CN(C(=O)c2cc(-c3ccnnc3)n[nH]2)CC1c1ccc(Br)cc1` (stereo unspecified) [WO2025045746, Example 46] showed an IC50 of 188 nM. That is a sub-micromolar value. The compound `O=C(c1cc(-c2ccnnc2)n[nH]1)N1CCC(c2cc3ccccc3s2)C1` (stereo unspecified) [WO2025045746, Example 54] displayed an IC50 of 8130 nM. In turn, `O=C(c1cc(-c2ccncc2)n[nH]1)N1CCC(c2ccccc2Cl)C1` (stereo unspecified) [WO2025045746, Example 6] displayed an IC50 of 3040 nM. With `O=C(c1cc(-c2ccnnc2)n[nH]1)N1C[C@@H](O)[C@H](c2ccc(Cl)cc2)C1` [WO2025045746, Example 21], it took 351 nM to reach half-maximal inhibition (IC50).

Take `O=C(c1cc(-c2ccncc2)n[nH]1)N1CCC(c2ccc(F)cc2Cl)C1` (stereo unspecified) [WO2025045746, Example 8]: the half-inhibitory concentration (IC50) amounted to 458 nM. The IC50 values of the last two compounds are within 1.5-fold of each other. Next, `O=C(c1[nH]nc(-c2ccnnc2)c1C1CC1)N1CCC(c2ccc(Cl)cc2)C1` (stereo unspecified) [WO2025045746, Example 66]: 3020 nM; `O=C(c1[nH]nc(-c2ccnnc2)c1Br)N1CC[C@H](c2ccc(Cl)cc2)C1` [WO2025045746, Example 58]: 340 nM; `COc1c(-c2ccnnc2)n[nH]c1C(=O)N1CCC(c2ccc(Cl)cc2)C1` (stereo unspecified) [WO2025045746, Example 35]: 698 nM. In the case of `O=C(c1cc(-c2ccncc2)n[nH]1)N1CCC(c2ccc(Cl)cc2)C1` (stereo unspecified) [WO2025045746, Example 1], the IC50 turned out to be 387 nM. On to `COc1cc(C2CCN(C(=O)c3cc(-c4ccnnc4)n[nH]3)C2)cc(F)c1F` (stereo unspecified) [WO2025045746, Example 33], for which inhibition was half-maximal at 2120 nM (IC50). Compared with the last compound, the IC50 is about 5.5-fold higher. Compound `O=C(c1cc(-c2ccncc2)n[nH]1)N1C[C@@H](O)[C@H](c2ccc(Cl)cc2)C1` [WO2025045746, Example 13] showed a 50% inhibitory concentration (IC50) of 624 nM. This IC50 is about 3.4-fold lower than that of the compound before. The compound `C[C@@H]1CN(C(=O)c2cc(-c3ccnnc3)n[nH]2)C[C@H]1c1ccc(Cl)cc1` [WO2025045746, Example 65] came in with an IC50 of 51 nM. The same measure for `O=C(c1cc(-c2ccnnc2)n[nH]1)N1CCC(c2cccc(OC(F)(F)F)c2)C1` (stereo unspecified) [WO2025045746, Example 18]: 6180 nM. For the compound `O=C(c1cc(-c2ccncc2)n[nH]1)N1CC[C@@H](c2ccc(Cl)cc2)C1` [WO2025045746, Example 27], the midpoint of inhibition, the IC50, lay at 625 nM. As to `O=C(c1cc(-c2ccnnc2)n[nH]1)N1CCC(c2ccc(Cl)nc2)C1` (stereo unspecified) [WO2025045746, Example 19], the IC50 was found to be 469 nM. Next, `Cc1cnccc1-c1cc(C(=O)N2CC[C@@H](c3ccc(Cl)cc3)C2)[nH]n1` [WO2025045746, Example 56]: 500 nM.
